The record followed here is patent publication US10562842B2, “Use of polyaminoisoprenyl derivatives in antibiotic or antiseptic treatment” (UNIVERSITE D'AIX-MARSEILLE, priority 2011, dated 2020).

Structures are written as SMILES. ≈ marks a conversion by molar mass, not a printed value.

The subject of one data set is AB1. Description: MIC by broth dilution (intrinsic MIC). The data set is classed as cell-based. The following applies: Acinetobacter baumannii. How it is done: (§1) Susceptibilities to antibiotics and compounds were determined in microplates by broth dilution method, as previously described. Minimal Inhibitory Concentrations (MICs) were determined with an inoculum of 10^6 CFU in 200 μL of MH broth containing two-fold serial dilutions of each drug. […] All MIC determinations were repeated at least three times in independent experiments.

The subject of another data set is AG100. Briefly: MIC by broth dilution (intrinsic MIC). The data set is classed as cell-based. The following applies: Escherichia coli AG100. As for the experimental part:
as §1
In general terms: Broth dilution looks for growth in wells or tubes with falling amounts of substance.

The next data set has as its system ATCC 13048. Briefly: MIC by broth dilution (intrinsic MIC). The following applies: Klebsiella aerogenes, ATCC13048; Enterobacter ATCC 13048. The data set is classed as cell-based. As for the experimental part: as §1
A further data set concerns ATCC 19606. Description: MIC by broth dilution (intrinsic MIC). Format: cell-based. As to conditions: Acinetobacter baumannii, ATCC19606; Acinetobacter ATCC 19606. As for the experimental part: as §1
A further data set has as its system Ea27. Description: MIC by broth dilution (intrinsic MIC). Format: cell-based. The following applies: Klebsiella aerogenes; Enterobacter Ea27. As for the experimental part:
as §1

The next data set deals with PA124. Description: MIC by broth dilution (intrinsic MIC). Format: cell-based. As to conditions: Pseudomonas aeruginosa. As for the experimental part:
as §1

The next data set concerns PAO1. Briefly: MIC by broth dilution (intrinsic MIC). The data set is classed as cell-based. As to conditions: Pseudomonas aeruginosa. How it is done: as §1
For data set [1], the system named is strain IV2571223 - Escherichia coli pig (sensible). Description: MIC of antibiotics in the presence and absence of test compound, veterinary strains. The data set is classed as cell-based. Also on record: MIC for strain IV2571223, Doxycycline in the presence of test compound: unit not given beside the values. As to conditions: compound at the Concentration (μM) (2-50). How it is done: For each strain and each antibiotic, the MICs were determined in the presence and in the absence of one test compound.

Another data set deals with CHO-K1 cells. Format: cell-based. As to conditions: for proliferation index, all the tested concentrations: Chinese hamster, 3 h. As for the experimental part: Genotoxicity of compounds 11 and 14 was assessed by micronucleus test. The micronucleus test was performed on CHO-K1 cells with and without metabolic activation. Metabolic activation is obtained by adding in the medium S9 mix. S9 mix contains NADP, G6P and S9 fraction which is a crude preparation of enzymes obtained from the homogenized liver of rats. Briefly, CHO-K1 cells were cultured in Mc Coy's medium 5A and then transferred in the wells of Lab-Tek chamber slides at a concentration of 100 000 cells/ml. The cells were incubated during 24 h at 37° C. at CO2 (5%). The culture medium was replaced by Mc Coy's 5A medium comprising 10% per volume of S9 mix. The test compounds were added at increased concentrations. After being incubated during three hours at 37° C., the cells were rinsed with phosphate buffer (PBS) and then cultured in Mac Coy's 5A medium containing 3 μg/ml cytochalasine B. After an incubation of 21 hours at 37° C., the cells were rinsed, fixed with methanol and coloured with Giemsa 10% during 20 minutes. For each set of assays, the positive control was 0.05 μg/ml of mitomycine C or 5 μg/ml of benzo-a-pyrene. The negative control was culture medium containing 5% of PBS. The stained cells were then analysed by microscopy for the presence of micronuclei. The proliferation index was determined as follows: IP=(2×BIN+MON)/500. MON: number of mononucleated cells and BIN: number of binucleated cells.

The nature of data set [2]: Tolerance in mice, intraperitoneal route. The data set is classed as in vivo. As to conditions: day 2, Compound 5 8.8 mg/kg, 8 1.46 mg/kg, 11 0.45 mg/kg, 14 0.35 mg/kg, 12 6.3 mg/kg. As for the experimental part: Mice were administered with increasing doses of test compounds by intraperitoneal route.
The mice were sacrificed on day 2 after the injection of the test compound and autopsied. No morphological anomaly was observed. Liver, lung, kidney and intestine of each mouse were fixed and analysed.

In another data set the test system is CHO cells. Briefly: Toxicity on CHO cultured cells. Format: cell-based. As to conditions: Cricetulus griseus; killing of 50% of the CHO cells after 24 hours of incubation. How it is done: The toxicity of each compound was determined on CHO cultured cells. Incubation of CHO cells was performed with serial dilution of compounds. The compounds are either solubilized in DMSO or in PBS. The IC50 corresponds to the concentration of compounds leading to a killing of 50% of the CHO cells after 24 hours of incubation.

Data set [3] has as its system Enterobacter, Salmonella and Escherichia strains. Briefly: MIC ratio, several strains. The data set is classed as cell-based. From the text:
(§2) For reminder, the MIC ratio corresponds to the ratio of the MIC of the assessed antibiotic alone to the MIC of the same antibiotic in the presence of the tested compound (at MIC/4).

Data set [4] concerns Pseudomonas and Actinebacter strains. Description: MIC ratio, several strains. Format: cell-based.
Excerpt: as §2

A word on the MIC: it is the lowest concentration found to suppress growth. Turning to `CC(C)=CCC/C(C)=C/CC/C(C)=C/CNCCCN(C)CCCN` [Compound 14, {3-[(3-Amino-propyl)-methyl-amino]-propyl}-((2E,6E)-3,7,11-trimethyl-dodeca-2,6,10-trienyl)-amine], the minimum inhibitory concentration (MIC) in the data set on AB1 came out at 62 µM (≈ 21.7 µg/mL); with AG100, 62 µM (≈ 21.7 µg/mL); in the data set on ATCC 13048, 31 µM (≈ 10.8 µg/mL); with ATCC 19606 it was 62 µM (≈ 21.7 µg/mL); against Ea27, 31 µM (≈ 10.8 µg/mL); with PA124, 250 µM (≈ 87.4 µg/mL). In the data set on PAO1, this compound returned an MIC of 250 µM (≈ 87.4 µg/mL). In addition, in data set [1], the “MIC for strain IV2571223, Doxycycline in the presence of test compound” value was 0.03125. Further, the “MIC for strain IV2571223, Tylosine in the presence of test compound” value in [1] was found to be 2. Also, the “genotoxicity in vitro (micronucleus test)” value in the data set on CHO-K1 cells was “not genotoxic in vitro”. Further, in the data set on CHO-K1 cells, the “proliferation index, all the tested concentrations” value was “higher than 50%”. Further, the “tissue anomaly (liver, lung, kidney, intestine)” value in data set [2] was “no significant tissue anomaly”.
In general, IC50 refers to the concentration at which inhibition is half-maximal. With `CC(C)=CCCC(C)=CCNCCCN(CCCN)CCCN` (racemic) [Compound 11, {3-[Bis-(3-amino-propyl)-amino]-propyl}-(3,7-dimethyl-octa-2,6-dienyl)-amine], in the data set on CHO cells, the half-maximal inhibitory concentration (IC50) was 0.282 mM. Besides, the MIC in the data set with AB1 stood at 31 µM (≈ 10.1 µg/mL); in the data set with AG100, 31 µM (≈ 10.1 µg/mL); with ATCC 13048, 31 µM (≈ 10.1 µg/mL); against ATCC 19606 it was 62 µM (≈ 20.1 µg/mL); with Ea27, 31 µM (≈ 10.1 µg/mL); in the data set on PA124 it was 62 µM (≈ 20.1 µg/mL). The same compound displayed an MIC against PAO1 of 62 µM (≈ 20.1 µg/mL). In addition, in data set [1], the “MIC for strain IV2571223, Doxycycline in the presence of test compound” value worked out at 0.03125. Further, in data set [1], the “MIC for strain IV2571223, Tylosine in the presence of test compound” value was found to be 16. Moreover, in the data set with CHO-K1 cells, the “genotoxicity in vitro (micronucleus test)” value is “not genotoxic in vitro”. Further, in the data set on CHO-K1 cells, the “proliferation index, all the tested concentrations” value is recorded as “higher than 50%”. In addition, the “tissue anomaly (liver, lung, kidney, intestine)” value in data set [2] was “no significant tissue anomaly”. Besides, the “sensitivity for chloramphenicol, nalidixic acid, doxycycline and oxacillin” value in data set [3] (Enterobacter Salmonella and Escherichia strains) was “increased the sensitivity”. Further, the “sensitivity to tetracycline, Enterobacter, Salmonella and E. coli strains” value in [3] (tetracycline, data not shown) is reported as “such an increase was not observed”. Besides, in data set [4] (Pseudomonas and Actinebacter strains), the “sensitivity of strains to chloramphenicol” value is on record as “greatly increased the sensitivity”. Besides, the “sensitivity to tetracycline, Pseudomonas and Actinebacter strains” value in data set [4] (tetracycline) is listed as “increased the sensitivity”.
